These results are taken from patent publication US11142526B2, “Spirocycle compounds and methods of making and using same” (H. Lundbeck A/S, priority 2017, dated 2021).

Each structure is given as a SMILES string. Where two headings read alike, the source gives them in different places.

Test [1] deals with MAGL (Homo sapiens (Human), UniProt Q99685). As to the kind of experiment: In vitro competitive activity-based protein profiling (gel-based, FP-Rh or HT-01 probe). In kind it is biochemical. The protocol: In Vitro Competitive Activity-Based Protein Profiling.
MAGL (Homo sapiens (Human), UniProt Q99685), sequence (Q99685 whole entry): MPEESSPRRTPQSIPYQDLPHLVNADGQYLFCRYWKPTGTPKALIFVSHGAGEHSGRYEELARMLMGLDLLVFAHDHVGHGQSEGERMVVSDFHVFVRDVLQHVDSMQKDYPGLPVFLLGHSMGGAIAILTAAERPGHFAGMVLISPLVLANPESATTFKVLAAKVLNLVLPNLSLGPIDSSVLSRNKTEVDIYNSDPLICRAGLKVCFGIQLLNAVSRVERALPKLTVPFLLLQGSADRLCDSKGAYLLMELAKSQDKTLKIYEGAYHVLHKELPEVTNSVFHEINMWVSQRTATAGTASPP
Proteomes (human prefrontal cortex or cell membrane fractions) (50 μL, 1.0 mg/mL total protein concentration) were preincubated with varying concentrations of inhibitors at 37° C. After 30 min, FP-Rh or HT-01 (1.0 μL, 50 μM in DMSO) was added and the mixture was incubated for another 30 min at room temperature. Reactions were quenched with SDS loading buffer (15 μL—4×) and run on SDS-PAGE.

Test [2] addresses MAGL (Mus musculus (Mouse), UniProt O35678). Description: In vitro competitive activity-based protein profiling, mouse brain proteome. In kind it is biochemical. To be noted: 1 uM; mouse.
The mark [3] stands for this setting: human PFC (prefrontal cortex), read-out: MAGL % Inhibition at 1 μM (human PFC).
Setting [4] is: human PC3, read-out: MAGL Human PC3 (IC50).
The mark [5] stands for this setting: human PC3, read-out: MAGL % Inhibition at 1 μM (human PC3).

MAGL (Mus musculus (Mouse), UniProt O35678), sequence (O35678 whole entry): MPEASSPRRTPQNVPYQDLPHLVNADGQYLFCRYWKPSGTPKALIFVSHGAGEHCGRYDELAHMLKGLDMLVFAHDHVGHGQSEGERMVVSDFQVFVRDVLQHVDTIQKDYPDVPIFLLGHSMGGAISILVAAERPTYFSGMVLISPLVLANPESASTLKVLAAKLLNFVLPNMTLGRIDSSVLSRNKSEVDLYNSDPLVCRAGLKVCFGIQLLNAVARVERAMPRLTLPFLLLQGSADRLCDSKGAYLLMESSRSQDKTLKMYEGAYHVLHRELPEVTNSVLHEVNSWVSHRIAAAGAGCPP

As for `Cc1cc(C(F)(F)F)n2nc(C(=O)N3CCCC34CCN(C(=O)OC(C(F)(F)F)C(F)(F)F)CC4)c(Cl)c2n1` [Example 121, 1,1,1,3,3,3-Hexafluoropropan-2-yl 1-(3-chloro-5-methyl-7-(trifluoromethyl)pyrazolo[1,5-a]pyrimidine-2-carbonyl)-1,8-diazaspiro[4.5] decane-8-carboxylate], the inhibition at 1 µM on MAGL [1] (setting [3]) and on MAGL [2] was > 75% each time. For the same compound, the IC50 (as a rule, the concentration needed to halve the response being measured) on MAGL [1] (human PFC (prefrontal cortex), read-out: MAGL Human PFC (IC50)) is < 100 nM.

As for `O=C(O)C1CCN(c2ncccc2CN2CCCC23CCN(C(=O)OC(C(F)(F)F)C(F)(F)F)CC3)CC1` [Example 124, 1-(3-((8-(((1,1,1,3,3,3-HexafIuoropropan-2-yl)oxy)carbonyl)-1,8-diazaspiro[4.5]decan-1-yl)methyl)pyridin-2-yl)piperidine-4-carboxylic acid], the inhibition (usually the drop in the measured response relative to a control, in per cent) at 1 µM on MAGL [1] (setting [3]) was 25 to 75%; on MAGL [2], > 75%.

In the case of `Cc1c(C(=O)N2CCCC23CCN(C(=O)OC(C(F)(F)F)C(F)(F)F)CC3)c(Cl)nn1C` [Example 125, 1,1,1,3,3,3-Hexafluoropropan-2-yl 1-(3-chloro-1,5-dimethyl-1H-pyrazole-4-carbonyl)-1,8-diazaspiro[4.5] decane-8-carboxylate], the inhibition at 1 µM at MAGL [1] (setting [3]) and on MAGL [2] was > 75% in each case. In addition, the IC50 on MAGL [1] (setting [4]) was < 100 nM.

Consider `Cc1ncncc1C(=O)N1CCCC12CCN(C(=O)OC(C(F)(F)F)C(F)(F)F)CC2` [Example 127, 1,1,1,3,3,3-Hexafluoropropan-2-yl 1-(4-methyl-pyrimidine-5-carbonyl)-1,8-diazaspiro[4.5] decane-8-carboxylate], for which the inhibition at 1 µM is 25 to 75% on MAGL [1] (setting [3]) and < 25% at MAGL [2].

For `Cc1nc(C)c(C(=O)N2CCCC23CCN(C(=O)OC(C(F)(F)F)C(F)(F)F)CC3)o1` [Example 128, 1,1,1,3,3,3-Hexafluoropropan-2-yl 1-(2,4-dimethyloxazole-5-carbonyl)-1,8-diazaspiro[4.5] decane-8-carboxylate], the inhibition at 1 µM on MAGL [1] (setting [3]) and on MAGL [2] was > 75% throughout. Besides, at MAGL [1] (setting [4]), the IC50 is < 100 nM.

On to `Cc1c(Cl)c(C(=O)N2CCCC23CCN(C(=O)OC(C(F)(F)F)C(F)(F)F)CC3)nn1C` [Example 131, 1,1,1,3,3,3-Hexafluoropropan-2-yl 1-(4-chloro-1,5-dimethyl-1H-pyrazole-3-carbonyl)-1,8-diazaspiro[4.5] decane-8-carboxylate], for which the inhibition at 1 µM on MAGL [1] (setting [3]) and at MAGL [2] was > 75% each time. Also, at MAGL [1] (setting [4]), the IC50 is < 100 nM.

`O=C(OC(C(F)(F)F)C(F)(F)F)N1CCC2(CCCN2Cc2cnc(N3CCN(C4CC4)CC3)s2)CC1` [Example 132, 1,1,1,3,3,3-Hexafluoropropan-2-yl 1-((2-(4-cyclopropylpiperazin-1-yl)thiazol-5-yl)methyl)-1,8-diazaspiro[4.5] decane-8-carboxylate]: the inhibition at 1 µM on MAGL [1] (setting [3]) and at MAGL [2] was > 75% in each case. The IC50 on MAGL [1] (setting [4]) is < 100 nM.

Consider `Cn1cc(Cl)c(CN2CCCC23CCN(C(=O)OC(C(F)(F)F)C(F)(F)F)CC3)n1` [Example 133, 1,1,1,3,3.3-Hexafluoropropan-2-yl 1-((4-chloro-1-methyl-1H-pyrazol-3-yl)methyl)-1,8-diazaspiro[4.5] decane-8-carboxylate], for which the inhibition at 1 µM on MAGL [1] (setting [3]) and at MAGL [2] was > 75% each time. Further, on MAGL [1] (setting [4]), the IC50 is < 100 nM.

`Cc1nc2ccccn2c1C(=O)N1CCCC12CCN(C(=O)OC(C(F)(F)F)C(F)(F)F)CC2` [Example 134, 1,1,1,3,3,3-Hexafluoropropan-2-yl 1-(2-methyl-imidazo[1,2-a]pyridine-3-carbonyl)-1,8-diazaspiro[4.5] decane-8-carboxylate]: the inhibition at 1 µM at MAGL [1] (setting [3]) and at MAGL [2] was > 75% each time. On MAGL [1] (setting [4]), the IC50 was < 100 nM.

Turning to `CN1CCN(c2ncncc2C(=O)N2CCCC23CCN(C(=O)OC(C(F)(F)F)C(F)(F)F)CC3)CC1` [Example 136, 1,1,1,3,3,3-Hexafluoropropan-2-yl 1-(4-(4-methylpiperazin-1-yl)pyrimidine-5-carbonyl)-1,8-diazaspiro [4.5]decane-8-carboxylate], the inhibition at 1 µM on MAGL [1] (setting [3]) is 25 to 75%; at MAGL [2], < 25%.

Consider `COc1ncc(CN2CCCC23CCN(C(=O)OC(C(F)(F)F)C(F)(F)F)CC3)s1` [Example 138, 1,1,1,3,3,3-Hexafluoropropan-2-yl 1-((2-methoxythiazol-5-yl)methyl)-1,8-diazaspiro[4.5] decane-8-carboxylate], for which the inhibition at 1 µM at MAGL [1] (setting [3]) and at MAGL [2] was > 75% throughout. Moreover, at MAGL [1] (setting [4]), the IC50 was < 100 nM.

On to `O=C(OC(C(F)(F)F)C(F)(F)F)N1CCC2(CCCN2C(=O)c2c(C(F)(F)F)nc3n2CCCC3)CC1` [Example 139, 1,1,1,3,3,3-Hexafluoropropan-2-yl 1-(2-(trifluoromethyl)-5,6,7,8-tetrahydroimidazo [1,2-a]pyridine-3-carbonyl)-1,8-diazaspiro[4.5] decane-8-carboxylate], for which the inhibition at 1 µM at MAGL [1] (setting [3]) and at MAGL [2] was > 75% each time. For the same compound, the 50% inhibitory concentration (IC50) on MAGL [1] (setting [4]) is < 100 nM.

In the case of `O=C(OC(C(F)(F)F)C(F)(F)F)N1CCC2(CCCN2C(=O)c2cnn3ccc(Cl)nc23)CC1` [Example 145, 1,1,1,3,3,3-Hexafluoropropan-2-yl 1-(5-chloropyrazolo[1,5-a]pyrimidine-3-carbonyl)-1,8-diazaspiro[4.5] decane-8-carboxylate], the inhibition at 1 µM at MAGL [1] (setting [5]), on MAGL [1] (setting [3]) and at MAGL [2] was > 75% throughout. Moreover, the concentration for half-maximal inhibition (IC50) at MAGL [1] (setting [4]) is < 100 nM.

As for `O=C(OC(C(F)(F)F)C(F)(F)F)N1CCC2(CCCN2C(=O)c2cnn3ccccc23)CC1` [Example 146, 1,1,1,3,3,3-Hexafluoropropan-2-yl 1-(pyrazolo[1,5-a]pyridine-3-carbonyl)-1,8-diazaspiro[4.5] decane-8-carboxylate], the inhibition at 1 µM at MAGL [1] (setting [5]), at MAGL [1] (setting [3]) and at MAGL [2] was > 75% throughout.

Turning to `O=C(OC(C(F)(F)F)C(F)(F)F)N1CCC2(CCCN2C(=O)c2cnn3c2NCCC3)CC1` [Example 147, 1.1,1,3,3,3-Hexafluoropropan-2-yl 1-(4,5,6,7-tetrahydropyrazolo [1,5-a]pyrimidine-3-carbonyl)-1,8-diazaspiro[4.5] decane-8-carboxylate], the inhibition at 1 µM at MAGL [1] (setting [5]), on MAGL [1] (setting [3]) and at MAGL [2] was > 75% each time. The IC50 on MAGL [1] (setting [4]) is < 100 nM.

As for `O=C(OC(C(F)(F)F)C(F)(F)F)N1CCC2(CCCN2C(=O)c2cnn3c2OCCC3)CC1` [Example 149, 1,1,1,3,3,3-Hexafluoropropan-2-yl 1-(6,7-dihydro-5H-pyrazolo[5,1-b] [1,3]oxazine-3-carbonyl)-1.8-diazaspiro[4.5] decane-8-carboxylate], the inhibition at 1 µM on MAGL [1] (setting [5]), on MAGL [1] (setting [3]) and at MAGL [2] was > 75% throughout. Further, the IC50 on MAGL [1] (setting [4]) is < 100 nM.

Regarding `O=C(OC(C(F)(F)F)C(F)(F)F)N1CCC2(CCCN2C(=O)c2cc3n(n2)CCN(CC2CC2)C3)CC1` [Example 156, 1,1,1,3,3,3-Hexafluoropropan-2-yl 1-(5-(cyclopropylmethyl)-4,5,6,7-tetrahydropyrazolo [1,5-a]pyrazine-2-carbonyl)-1,8-diazaspiro[4.5] decane-8-carboxylate], the inhibition at 1 µM on MAGL [1] (setting [5]), on MAGL [1] (setting [3]) and on MAGL [2] was > 75% throughout. Moreover, the IC50 at MAGL [1] (setting [4]) is < 100 nM.

Turning to `O=C(OC(C(F)(F)F)C(F)(F)F)N1CCC2(CCCN2C(=O)c2nn3cccnc3c2Cl)CC1` [Example 157, 1,1,1,3,3,3-Hexafluoropropan-2-yl 1-(3-chloropyrazolo[1,5-a]pyrimidine-2-carbonyl)-1,8-diazaspiro[4.5] decane-8-carboxylate], the inhibition at 1 µM at MAGL [1] (setting [5]), at MAGL [1] (setting [3]) and at MAGL [2] was > 75% in each case.

In the case of `O=C(O)CN1CCn2cc(C(=O)N3CCCC34CCN(C(=O)OC(C(F)(F)F)C(F)(F)F)CC4)nc2C1` [Example 158, 2-(2-(8-(((1,1,1,3,3,3-Hexafluoropropan-2-yl)oxy)carbonyl)-1,8-diazaspiro[4.5]decane-1-carbonyl)-5,6-dihydroimidazo[1,2-a]pyrazin-7(8H)-yl) acetic acid], the inhibition at 1 µM is > 75% at MAGL [1] (setting [5]), > 75% on MAGL [1] (setting [3]) and 25 to 75% on MAGL [2].

For `O=C(OC(C(F)(F)F)C(F)(F)F)N1CCC2(CCCN2C(=O)c2cn3ccncc3n2)CC1` [Example 159, 1,1,1,3,3,3-Hexafluoropropan-2-yl 1-(imidazo[1,2-a]pyrazine-2-carbonyl)-1,8-diazaspiro[4.5] decane-8-carboxylate], the inhibition at 1 µM at MAGL [1] (setting [3]) and on MAGL [2] was > 75% throughout. In addition, the IC50 on MAGL [1] (setting [4]) was < 100 nM.

With `O=C(OC(C(F)(F)F)C(F)(F)F)N1CCC2(CCCN2C(=O)c2cn3c(n2)CN(C2CCOCC2)CC3)CC1` [Example 162, 1,1,1,3,3,3-Hexafluoropropan-2-yl 1-(7-(tetrahydro-2H-pyran-4-yl)-5,6,7,8-tetrahydroimidazo [1,2-a]pyrazine-2-carbonyl)-1,8-diazaspiro[4.5] decane-8-carboxylate], the inhibition at 1 µM on MAGL [1] (setting [5]) and at MAGL [2] was > 75% each time. In addition, the IC50 at MAGL [1] (setting [4]) was < 100 nM.

In the case of `O=C(OC(C(F)(F)F)C(F)(F)F)N1CCC2(CCCN2C(=O)c2cn3nc(Cl)ccc3n2)CC1` [Example 163, 1,1,1,3,3,3-Hexafluoropropan-2-yl 1-(6-chloroimidazo[1,2-b]pyridazine-2-carbonyl)-1,8-diazaspiro[4.5] decane-8-carboxylate], the inhibition at 1 µM on MAGL [1] (setting [5]) and at MAGL [2] was > 75% throughout.
